Source: patent publication US8350062B2, “Synthesis and anticancer activity of new actin-targeting small-molecule agents” (priority 2009, dated 2013)
Entries after “also recorded” stand apart in the source; their conditions may differ. Where two headings read alike, the source gives them in different places.

Assays:
G-actin [1] = target: T1, G-actin (Oryctolagus cuniculus, UniProt P68135); test: Isothermal titration calorimetry, binding to monomeric actin; parameters: species or system rabbit; conditions: for Kd: isothermal titration calorimetry, 25° C.
T1 construct: Actin was purified from rabbit muscle acetone powder; tissue Pel-Freez Biologicals (acetone powder); host or cells: rabbit muscle acetone powder
Method: Isothermal Titration Calorimetry. A solution of rabbit skeletal muscle actin (5-10 μM) was titrated with bistramide A or its analog (50-100 μM) at 25° C. in buffer containing 2 mM Tris HCl, pH 8.0, 0.2 mM CaCl2, 0.01% NaN3, 0.2 mM ATP, 0.2 mM 2-mercaptoethanol. Dissociation constants were calculated from the binding curve using Origin analytical software (OriginLab) with the binding model involving a single set of identical sites

F-actin in A549 cells = test: Fluorescent visualization of F-actin in A549 cells (Alexa Fluor 488 phalloidin); assay type: cell-based, human; conditions: for concentration inducing actin depolymerization in A549 cells: 2 h incubation; for actin depolymerization in A549 cells: 100 μM, 2 h
Method: The presence of the enone increased the severing efficiency of the analogs three-fold. […] We determined whether it was the depletion of actin filaments by analogs 2-5 which was responsible for the growth inhibition of A549 cells. Each of the compounds was incubated with A549 cells for 2 h at a concentration that exceeded the GI50 value by a factor of 5. The cells were then fixed, permeabilized and filamentous actin was visualized by fluorescence microscopy following Alexa Fluor 488 phalloidin staining. […] They induced depolymerization at 150 nM for bistramide A (1), 500 nM for analog 2 and 2 μM for analog 3. Analogs 4 and 5 induced depolymerization of actin only at concentrations as high as 100 μM. […] This observation was consistent with the enhanced cell-based activity of the compounds containing the C(1)-C(4) enone moiety.
Fluorescent Visualization Of F-Actin In Cells. A549 cells grown on coverslips were incubated with analogs 4-8 (100 μM) analog 3 (2 μM) or analog 2 (500 nM) or bistramide A (150 nM) in F-12K cell culture medium for 2 h, fixed with 3% formaldehyde in PBS at 25° C. for 5 min and permeabilized with 0.1% Triton X-100 at 25° C. for 10 min. After washing with PBS, coverslips were stained with Alexa Fluor 488 Phalloidin and visualized by fluorescence microscopy.

filamentous actin = filamentous actin (Oryctolagus cuniculus, UniProt P68135); test: TIRF microscopy of actin filament severing and depolymerization; assay type: biochemical, rabbit; parameters: Actin was purified from rabbit muscle acetone powder; tissue Pel-Freez Biologicals (acetone powder); host or cells: rabbit muscle acetone powder; conditions: for Pointed-end depolymerization rate: standard deviations 0.1-0.3 subunits/s; for Barbed-end depolymerization rate: standard deviations 0.4-0.6 subunits/s; for severing of actin filaments compared to bistramide A (1): determined at 15 μM; for effect on actin depolymerization: concentrations as high as 200 μM
Description: To gain further insight into the mode of action of bistramide A, we next investigated the interaction of the natural product and its analogs with filamentous actin. […] Similar observations have been reported for several other actin-binding natural products. However, this effect could provide only limited mechanistic information and may primarily reflect the binding of a small molecule to the filaments in close proximity to the dye and quenching of pyrene fluorescence, which could be independent of the rates of actin depolymerization. Some proteins like myosin and Actin Depolymerizing Factor (ADF)/Cofilin are known to do so. Total internal reflection fluorescence (TIRF) microscopy has recently emerged as a powerful tool to investigate actin filament dynamics and its regulation by several actin-binding proteins, as well as latrunculin A, which is […] depolymerizing filamentous actin in vitro. Thus, we decided to employ TIRF microscopy to observe in real time the effects of bistramide-based compounds on actin polymerization in vitro. We believe this is the first instance where TIRF microscopy has been utilized to study the severing of actin filaments by a small molecule. We polymerized G-actin containing 25% of tetramethylrhodamine-functionalized and 10% of biotin-functionalized actin. The resulting actin filaments were immobilized onto the streptavidin-coated glass slides (in a flow cell). Analogs 1-8 were flown through the flow cell and imaged by time-lapse TIRF microscopy.
Total Internal Reflection Fluorescence Microscopy. Actin filament severing was studied using a custom-built total internal reflection fluorescence microscope. Images were collected with a 100×, 1.45 NA objective (Olympus) and an EMCCD camera (iXon, Andor Technologies). Glass flow cell (6 μl volume) was washed with 0.25 mg/ml neutravidin in F-buffer (50 mM KCl, 1 mM MgCl2, 1 mM EGTA, 10 mM imidiazole, 2 mM ATP, 0.2 mM 2-mercaptoethanol, 2 min) and blocked with 1 mg/ml BSA in F-buffer (2 min). Ten microliters of 200 nM Mg^2+-F-actin (10% biotinylated, 25% labeled with maleimide-6-tetramethylrhodamine) in TIRF-buffer (50 mM KCl, 1 mM MgCl2, 1 mM EGTA, 10 mM imidiazole, 2 mM ATP, 4.5 mg/ml glucose, 0.5% 2-mercaptoethanol, 4.3 mg/ml glucose oxidase, 0.7 mg/ml catalase) was added to the flowcell and incubated for 2 min. The chamber was rinsed with TIRF-buffer and imaged. Compounds were freshly diluted from their DMSO stock solutions in TIRF-buffer and were added to the chamber immediately after the start of each experiment. Images were collected at 0.2-s exposures every 3 s for 200 frames. For kinetics studies, movies of suitable length were obtained for each of the analog concentrations. Analysis was performed using ImageJ.

G-actin [2] = target: T1, G-actin; test: Interaction with actin by MALDI-TOF (covalent modification); assay type: biochemical, rabbit; conditions: 1:1 actin-drug complex, 30 min
Method: Interaction Of Bistramide-Based Compounds With Actin By MALDI-TOF. A 1:1 actin-drug complex was incubated for 30 min in 2 mM Tris-HCl, pH 8.0, 0.2 mM CaCl2, 0.01% NaN3, 0.2 mM ATP, 1 mM 2-mercaptoethanol, diluted with deionized water to 26 μM and mixed with an equal volume of a solution of 10 mg/ml sinapinic acid in 50% CH3CN— 0.1% TFA. MALDI spectra were obtained on a Voyager-DE PRO biospectrometry workstation.

A549 cells = test: Cell viability assay (CellTiter-Glo), growth inhibition of A549 cells; assay type: cell-based, human; conditions: 48 h incubation
Method: Cell Viability Assays. All assays were performed using at least three replicate wells for each concentration tested. Original 10-25 mM DMSO stock solution of bistramide A or its analogs was diluted to 100 μM for analogs 4-8, 10 μM for analog 3, 5 μM for analog 2 and 1 μM for bistramide A (1) with F-12K cell culture media supplemented with 10% fetal bovine serum, 100 I.U./ml penicillin, 100 μg/ml streptomycin and 2 mM L-glutamine. Two-fold serial dilutions were performed and used for cell-based assays. A549 cells were grown in 96-well white plates at the density of 1,000 cells per well in 100 μl F-12K cell culture media. Cells were allowed to attach over 24 h and treated with 30 μl of the drug solution and incubated further for 48 h. After incubation, cell viability was determined using luminescence-based commercial kit (CellTiter-Glo, Promega) and luminescence measured using a Wallac Victor 3 plate reader. To measure cell growth inhibition, viability assays were performed twice: at initial time point T0 and after 48 h incubation (T48). Change in the number of viable cells was measured, and GI50 was calculated from sigmoidal plots. For analog 10, growth of A549 and PC3 cells was monitored over 96 h following addition of the drug. 100 μM was the highest concentration tested. At no point did the total DMSO conc. exceed 1%.

[3] = test system: non-small cell broncho-pulmonary carcinoma xenografts; conditions: mouse, in vivo; cited from earlier work
[4] = mouse, in vivo; cited from earlier work
[5] = Homo sapiens, A549, 48 h, read-out: GI50
[6] = Homo sapiens, A549, 48 h, values of the text, read-out: GI50

## C=C[C@@H](C)CC[C@@H]1CCC[C@]2(CCC(C)[C@@H](CCCNC(=O)[C@@H](C)[C@@H](O)CNC(=O)CC3O[C@H](CC(=O)/C=C/C)CCC3C)O2)O1 (stereo partly drawn) [Analog 2]
G-actin [1]; read-out: Kd
  Kd: 70 nM
F-actin in A549 cells
  concentration inducing actin depolymerization in A549 cells: 0.5 µM
Filamentous actin; compound at 15 μM
  No. of breaks per 100 μm: 41.8 per 100 μm
  Pointed-end depolymerization rate: 0.48 subunits/s
  Barbed-end depolymerization rate: 1.90 subunits/s
Filamentous actin
  severing of actin filaments compared to bistramide A (1): severed actin filaments albeit with lesser efficiency
Filamentous actin; initial rate of severing, 1-15 μM
  potency at severing filamentous actin relative to analog 4: at least three times more potent at severing filamentous actin
G-actin [2]
  covalent modification of G-actin: covalently modified G-actin
A549 cells; [5]
  GI50: 87 nM
A549 cells; [6]
  GI50: 87.1 nM

## C=CCC[C@@H]1CCC[C@]2(CCC[C@@H](CCCNC(=O)[C@@H](C)[C@@H](O)CNC(=O)CC3O[C@H](CC(=O)/C=C/C)CCC3C)O2)O1 (stereo partly drawn) [Analog 3]
G-actin [1]; read-out: Kd
  Kd: 1500 nM
F-actin in A549 cells
  concentration inducing actin depolymerization in A549 cells: 2 µM
Filamentous actin
  concentration at which actin filaments were severed: 200 µM
Filamentous actin; compound at 200 μM
  No. of breaks per 100 μm: 13.3 per 100 μm
  Pointed-end depolymerization rate: 0.57 subunits/s
  Barbed-end depolymerization rate: 1.84 subunits/s
G-actin [2]
  covalent modification of G-actin: covalently modified G-actin
A549 cells; [5]
  GI50: 323 nM
A549 cells; [6]
  GI50: 323 nM

## C=CC[C@@H]1CCCC(CC(=O)NC[C@H](O)[C@H](C)C(=O)NCCC[C@H]2O[C@@]3(CCC[C@@H](CC[C@H](C)C=C)O3)CCC2C)O1 (stereo partly drawn) [Analog 4]
G-actin [1]; read-out: Kd
  Kd: 319 nM
F-actin in A549 cells
  concentration inducing actin depolymerization in A549 cells: 100 µM
Filamentous actin; compound at 15 μM
  No. of breaks per 100 μm: 16.5 per 100 μm
  Pointed-end depolymerization rate: 0.51 subunits/s
  Barbed-end depolymerization rate: 1.92 subunits/s
Filamentous actin
  severing of actin filaments compared to bistramide A (1): severed actin filaments albeit with lesser efficiency
G-actin [2]
  covalent modification of G-actin: no cross-linking was observed
A549 cells; [5]
  GI50: 11200 nM

## C=C[C@@H](C)CC[C@@H]1CCC[C@]2(CCC(C)[C@@H](CCCNC(=O)[C@@H](C)[C@@H](O)CNC(=O)CCOC)O2)O1 (stereo partly drawn) [Analog 5]
G-actin [1]; read-out: Kd
  Kd: 43 nM
F-actin in A549 cells
  concentration inducing actin depolymerization in A549 cells: 100 µM
Filamentous actin; compound at 15 μM
  No. of breaks per 100 μm: 13.0 per 100 μm
  Pointed-end depolymerization rate: 0.55 subunits/s
  Barbed-end depolymerization rate: 1.93 subunits/s
Filamentous actin
  severing of actin filaments compared to bistramide A (1): severed actin filaments albeit with lesser efficiency
G-actin [2]
  covalent modification of G-actin: no cross-linking was observed
A549 cells; [5]
  GI50: 15100 nM

## C=CCC[C@@H]1CCC[C@]2(CCC[C@@H](CCCNC(=O)[C@@H](C)[C@@H](O)CNC(=O)CCOC)O2)O1 [Analog 6]
G-actin [1]; read-out: Kd
  Kd: 680 nM
F-actin in A549 cells
  actin depolymerization in A549 cells: No depolymerization was observed
Filamentous actin
  concentration at which actin filaments were severed: 200 µM
Filamentous actin; compound at 200 μM
  No. of breaks per 100 μm: 3.4 per 100 μm
  Pointed-end depolymerization rate: 0.41 subunits/s
  Barbed-end depolymerization rate: 2.29 subunits/s
G-actin [2]
  covalent modification of G-actin: no cross-linking was observed
A549 cells
  GI50: No cell -based activity
A549 cells; [5]
  GI50: > 100000 nM

## C=C[C@@H](C)CC[C@@H]1CCC[C@]2(CCC(C)[C@@H](CCCNC(C)=O)O2)O1 (stereo partly drawn) [Analog 7]
G-actin [1]
  observable activity (actin binding by ITC and inhibition of A549 proliferation): neither the spiroketal (analog 7) nor the central amide subunit (analog 8) alone displayed any observable activity
  Kd: No actin binding
F-actin in A549 cells
  actin depolymerization in A549 cells: No depolymerization was observed
Filamentous actin; compound at 200 μM
  No. of breaks per 100 μm: 0.2 per 100 μm
  Pointed-end depolymerization rate: 0.32 subunits/s
  Barbed-end depolymerization rate: 1.87 subunits/s
Filamentous actin
  effect on actin depolymerization: no effect on actin depolymerization
A549 cells
  GI50: No cell -based activity

## COCCC(=O)NC[C@H](O)[C@H](C)C(=O)NCCCCC(C)C [Analog 8]
G-actin [1]
  observable activity (actin binding by ITC and inhibition of A549 proliferation): neither the spiroketal (analog 7) nor the central amide subunit (analog 8) alone displayed any observable activity
  Kd: No actin binding
F-actin in A549 cells
  actin depolymerization in A549 cells: No depolymerization was observed
Filamentous actin; compound at 200 μM
  No. of breaks per 100 μm: None
  Pointed-end depolymerization rate: 0.21 subunits/s
  Barbed-end depolymerization rate: 2.15 subunits/s
Filamentous actin
  effect on actin depolymerization: no effect on actin depolymerization
A549 cells
  GI50: No cell -based activity

## C/C=C/[C@H](O)CC1CCC(C)C(CC(=O)NCC(O)C(C)C(=O)NCCCC2OC3(CCCC(CCC(C)/C=C(\C)C(C)O)O3)CCC2C)O1 (stereo partly drawn) [bistramide D]
[3]
  inhibition of tumor growth in xenograft model: shown to inhibit proliferation; also recorded: effective at inhibiting tumor growth in vivo

## C/C=C/C(O)C/C=C/CC(C)C(O)CC(=O)NCC(O)C(C)C(=O)NCCCC1OC2(CCCC(CCC(C)/C=C(\C)C(C)O)O2)CCC1C (stereo not drawn) [bistramide K]
[4]
  dose with no observed toxicity: up to 200 mg/kg
[3]
  inhibition of tumor growth in xenograft model: shown to inhibit proliferation; also recorded: effective at inhibiting tumor growth in vivo
